Source: publication PMC6514962, “The Impact of O-Glycosylation on Cyanidin Interaction with RBCs and HMEC-1 Cells—Structure–Activity Relationships” (International Journal of Molecular Sciences, 2019)

Legend:
[1] = set-up: method as in doi:10.1007/s10068-014-0279-x; details: cited from earlier work
[2] = tested on: erythrocytes (RBCs); assay: protection of erythrocytes against AAPH-induced hemolysis; type: cell-based, pig; details: compared with CR and CDG
Protocol: Upon removal from plasma, the erythrocytes (RBCs) were washed four times in phosphate solution (pH 7.4) and then incubated in the same solution, but containing appropriate amounts of the compounds studied. The modification was conducted at 37 °C for 1 h, each 1 mL sample containing an RBC suspension of 1.2% hematocrit and 1 to 100 µM of compounds, stirred continuously. After the modification, 2 mL of phosphate buffer were added and samples were centrifuged, and the supernatant assayed for hemoglobin content using a spectrophotometer (Specord 40, Analytik Jena) at the 540 nm wavelength. To test the effect of compounds on hemolysis inducted by AAPH, RBCs were pre-incubated with varying concentrations of compounds at 37 °C for 1 h. Hemolysis of RBCs was carried out by mixing 3% suspension of RBCs (unmodified or modified by 2 to 20 µM of the compounds) in phosphate buffer with AAPH solution (final concentration 120 mM). This reaction mixture was incubated for 3 h at 37 °C. After incubation, samples were centrifuged for 15 min (2000× g, RT). The extent of hemolysis was determined spectrophotometrically by measuring the absorbance of the supernatant at 540 nm. Hemoglobin concentration in the supernatant, expressed as a percentage of the hemoglobin concentration in the supernatant of totally hemolyzed cells, was assumed as the measure of the extent of hemolysis.

[3] = tested on: HMEC-1 cells; assay: AAPH-stimulated intracellular ROS generation, H2DCF-DA assay; type: cell-based, human; details: HMEC-1 pretreated 24 h with 50 to 75 µM, then AAPH 24 h
Protocol: (§1) The impact of investigated compounds on the level of intracellular reactive oxygen species and their ability to inhibit AAPH-stimulated intracellular ROS generation were assessed using a H2DCF-DA probe. Non-fluorescent H2DCF-DA is hydrolyzed intracellularly to form 2′,7′-dichlorodihydrofluorescein, which is oxidized by reactive oxygen species to the fluorescent 2′,7′-dichlorofluorescein. ROS production was estimated in HMEC-1 cells seeded on 96-well plates (5 × 10^3/well) and cultured for 12 to 24 h. After that time, the compounds were added at appropriate concentrations. The incubation was continued for another 24 h and 48 h at 37 °C under 5% CO2. In the case of AAPH-simulated ROS generation, the cells were incubated with extracts for 24 h. After incubation, the AAPH dissolved in culture medium was added to each well at the final concentration of 7.5 mM and incubated for the next 24 h. After that time, the cell monolayers were rinsed with HBSS containing 1% albumin and 5 µM of the fluorescence probe, 2′,7′-dichlorodihydrofluorescein diacetate (H2DCF-DA), was added. Immediately and after 0.5 h, 1 h, and 2 h incubation in the dark in standard conditions, the fluorescence was measured at λex = 485 nm and λem = 538 nm.
(§2) In the next step, DNA content was determined. For this purpose, after measurements, the cells were frozen at −70 °C. Next, the cells were thawed and re-frozen after the addition of […] of distilled water/well. Then, the cells were thawed again. After that, 5 µM of RNase was added to each well and incubated for 30 min in the dark at 37 °C. Next, 50 µL of 2.5 µM propidium iodide was added to the cells and incubated for 5 min in the same conditions. The fluorescence intensity of PI was measured at λex = 355 nm and λem = 620 nm. The rate of ROS generation was calculated according to the formula: (1) Rate of ROS=IFe1/IFe2/IFc1/IFc2⋅100% where IFe1 and IFe2 are fluorescence intensities of H2DCF-DA and PI in compound-modified or compound-modified and AAPH-oxidized cells, and IFc1 and IFc2 are fluorescence intensities of H2DCF-DA and PI in control or AAPH-oxidized control cells.

[4] = tested on: RAW 264.7 cells; set-up: method as in doi:10.1007/s10068-014-0279-x; details: 100 to 200 µg/mL; cited from earlier work
[5] = tested on: HER2 (breast cancer), GBM (glioblastoma), and human monocytic leukemia; set-up: method as in PMID 15080622, PMID 24312561, PMID 28867321; details: cancer cells, interrupting the G2-M phase; cited from earlier work
[6] = tested on: MCF-7, HuH-7, HepG2, Caco-2, and HUVEC; set-up: method as in doi:10.3136/fstr.17.515; details: cited from earlier work
[7] = tested on: HMEC-1 cells; assay: intracellular ROS generation in non-oxidized cells, H2DCF-DA assay; type: cell-based, human
Protocol: as §1, §2

[8] = tested on: HMEC-1 cells; assay: viability of HMEC-1 cells, XTT and Hoechst 33342 assays; type: cell-based, human; details: HMEC-1, 10-100 µM, 48 h
Protocol: The effect of compounds on the viability of HMEC-1 cells was assessed by XTT (2,3-bis-(2-methoxy-4-nitro-5-sulfophenyl)-2H-tetrazolium-5-carboxanilide) and Hoechst 33342 assays. Briefly, 5 × 10^3 cells in 100 µL of the appropriate growth medium were plated in 96-well flat bottom clear microplates and cultured for 24 h at 37 °C in a humidified 5% CO2 incubator to ensure their logarithmic growth. […] A corresponding volume of 0.5% ethanol was added to the control wells. In parallel experiments, some of the cells were additionally incubated with doxorubicin in a concentration of 0.5 µM (a cytotoxic compound usually used as an anticancer drug). After incubation, the medium in the wells was aspirated, the cell monolayers were rinsed twice with pre-warmed (37 °C) PBS, and the cells were allowed to grow for an additional 48 h. After incubation, during the XTT assay, medium was removed by aspiration and 50 µL of XTT/PMS solution (10 µL of 10 mM PMS + 4 mL of 4 mg/mL XTT solution) was added to cells. Cells were incubated in the dark for 2 h (37 °C, 5% CO2). After incubation, the absorbance of the samples was read at 450 nm and 690 nm using an Epoch Microplate Spectrophotometer, BioTek Instruments, Inc., Winooski, Vermont, USA. The fraction of surviving treated cells was presented as a percentage of viable control (untreated) cells taken as 100%. In the Hoechst test, after incubation of cells with cyanidin and its glycosides, the medium was removed and the cells were washed twice with HBSS buffer containing 1% bovine serum albumin and frozen at −70 °C. Next, the cells were thawed at room temperature (RT) and re-frozen after the addition of […] of distilled water. After thawing the plates at room temperature, 100 µL of HVAB solution (0.5% Hoechst in TNE solution containing 2 M NaCl, 1 mM EDTA, 10 mM Tris-HCl, pH 7.4) were added to each well. Next, cells were incubated for 15 min in the dark at 37 °C, mixed, and the fluorescence intensity of the probe was measured at 355 and 460 nm for excitation and emission, respectively (Fluoroskan Ascent FL, Thermo Scientific, Waltham, MA, USA). Cell viability was calculated as the ratio of the fluorescence intensity of the Hoechst 33342 probe for compound-modified to -unmodified cells and expressed as a percentage.

[9] = tested on: macrophages; set-up: method as in doi:10.1007/s10068-014-0279-x; details: cited from earlier work

For OCC1OC(Oc2cc3c(O)cc(O)cc3[o+]c2-c2ccc(O)c(O)c2)C(O)C(O)C1O (stereo not shown) [CG, cyanidin-3-O-glucoside], the “nitrite scavenging activity compared with CR” value [1] is given as “higher”, the “level of RBCs' protection relative to CR and CDG” value [2] is given as “better protection” and the “intracellular ROS level in comparison with control AAPH-oxidized cells” value [3] is given as “significant decrease”. The “cell viability compared with control cells” value [4] was “significantly decreased”, the “cytotoxic effect (apoptosis)” value [5] was “inducing apoptosis” and the “intracellular ROS levels” value [6] was “did not”. For the same molecule, the “intracellular ROS level compared with control cells” value ([7]; HMEC-1, 24 h, 50-100 µM) was “significant decrease”, the “intracellular ROS level compared with control cells” value ([7]; HMEC-1, 48 h, 100 µM) was “no significant difference” and the cytotoxicity [8] was “no cytotoxicity”. For the same molecule, the “protective effect against H2O2-induced cytotoxicity compared with CR” value [9] was “stronger protective effect”.
